Reference: ChEMBL document CHEMBL5236661, “A new selective inhibitor for IMP-1 metallo-β-lactamase, 3Z,5E-octa-3,5-diene-1,3,4-tricarboxylic acid-3,4-anhydride” (Bioorg Med Chem, 2023)
Converted amounts (≈) assume the structure as drawn. The source made the active and inactive calls. The calls are words filed in the database; no cut-off is given here.

Experiments:
[1] = Inhibition of bacterial Metallo-beta-lactamase IMP-1 using nitrocefin as substrate pre-incubated for 15 mins followed by substrate addition by microplate reader; design: species or system Bacteria
Escherichia coli [2] = experiment: Antibacterial activity against Escherichia coli KB366 expressing IMP-1 assessed as inhibition of bacterial growth at 100 ug in presence of meropenem incubated overnight by paper disk method; type: functional; conditions: read-out: IZ
Escherichia coli [3] = experiment: Antibacterial activity against Escherichia coli KB366 expressing IMP-1 assessed as inhibition of bacterial growth at 30 ug in presence of meropenem incubated overnight by paper disk method; type: functional; conditions: read-out: IZ
Escherichia coli [4] = experiment: Antibacterial activity against Escherichia coli KB366 expressing IMP-1 assessed as inhibition of bacterial growth at 10 ug in presence of meropenem incubated overnight by paper disk method; type: functional; conditions: read-out: IZ
Escherichia coli [5] = experiment: Antibacterial activity against Escherichia coli KB366 expressing IMP-1 assessed as inhibition of bacterial growth at 3 ug in presence of meropenem incubated overnight by paper disk method; type: functional; conditions: read-out: IZ
Escherichia coli [6] = experiment: Antibacterial activity against Escherichia coli KB366 expressing IMP-1 assessed as inhibition of bacterial growth at 1 ug in presence of meropenem incubated overnight by paper disk method; type: functional; conditions: read-out: IZ
Escherichia coli [7] = experiment: Antibacterial activity against Escherichia coli KB366 expressing IMP-1 assessed as inhibition of bacterial growth at 0.3 ug in presence of meropenem incubated overnight by paper disk method; type: functional; conditions: read-out: IZ
Escherichia coli [8] = experiment: Antibacterial activity against Escherichia coli KB366 expressing IMP-1 assessed as inhibition of bacterial growth at 0.1 ug in presence of meropenem incubated overnight by paper disk method; type: functional
Escherichia coli [9] = experiment: Antibacterial activity against Escherichia coli KB366 expressing IMP-1 assessed as inhibition of bacterial growth at 0.03 ug in presence of meropenem incubated overnight by paper disk method; type: functional
Escherichia coli [10] = experiment: Antibacterial activity against Escherichia coli KB366 expressing IMP-1 assessed as inhibition of bacterial growth at 0.01 ug in presence of meropenem incubated overnight by paper disk method; type: functional; conditions: dose 0.01 µg
Escherichia coli [11] = experiment: Antibacterial activity against Escherichia coli KB366 expressing IMP-1 assessed as inhibition of bacterial growth at 100 ug in absence of meropenem incubated overnight by paper disk method; type: functional, organism-based; conditions: dose 100.0 µg
Escherichia coli [12] = experiment: Antibacterial activity against Escherichia coli KB366 expressing IMP-1 assessed as inhibition of bacterial growth at 30 ug in absence of meropenem incubated overnight by paper disk method; type: functional, organism-based; conditions: dose 30.0 µg
Escherichia coli [13] = experiment: Antibacterial activity against Escherichia coli KB366 expressing IMP-1 assessed as inhibition of bacterial growth at 10 ug in absence of meropenem incubated overnight by paper disk method; type: functional, organism-based; conditions: dose 10.0 µg
Escherichia coli [14] = experiment: Antibacterial activity against Escherichia coli KB366 expressing IMP-1 assessed as inhibition of bacterial growth at 3 ug in absence of meropenem incubated overnight by paper disk method; type: functional, organism-based; conditions: dose 3.0 µg
Escherichia coli [15] = experiment: Antibacterial activity against Escherichia coli KB366 expressing IMP-1 assessed as inhibition of bacterial growth at 1 ug in absence of meropenem incubated overnight by paper disk method; type: functional, organism-based; conditions: dose 1.0 µg
Escherichia coli [16] = experiment: Antibacterial activity against Escherichia coli KB366 expressing IMP-1 assessed as inhibition of bacterial growth at 0.3 ug in absence of meropenem incubated overnight by paper disk method; type: functional, organism-based; conditions: dose 0.3 µg
Escherichia coli [17] = experiment: Antibacterial activity against Escherichia coli KB366 expressing IMP-1 assessed as inhibition of bacterial growth at 0.1 ug in absence of meropenem incubated overnight by paper disk method; type: functional, organism-based; conditions: dose 0.1 µg
Escherichia coli [18] = experiment: Antibacterial activity against Escherichia coli KB366 expressing IMP-1 assessed as inhibition of bacterial growth at 0.03 ug in absence of meropenem incubated overnight by paper disk method; type: functional, organism-based; conditions: dose 0.03 µg
Escherichia coli [19] = experiment: Antibacterial activity against Escherichia coli KB366 expressing IMP-1 assessed as inhibition of bacterial growth at 0.01 ug in absence of meropenem incubated overnight by paper disk method; type: functional, organism-based; conditions: dose 0.01 µg
Pseudomonas aeruginosa [20] = experiment: Antibacterial activity against Pseudomonas aeruginosa KB367 expressing IMP-1 assessed as inhibition of bacterial growth at 100 ug in presence of meropenem incubated overnight by paper disk method; type: functional; conditions: read-out: IZ
Pseudomonas aeruginosa [21] = experiment: Antibacterial activity against Pseudomonas aeruginosa KB367 expressing IMP-1 assessed as inhibition of bacterial growth at 30 ug in presence of meropenem incubated overnight by paper disk method; type: functional; conditions: read-out: IZ
Pseudomonas aeruginosa [22] = experiment: Antibacterial activity against Pseudomonas aeruginosa KB367 expressing IMP-1 assessed as inhibition of bacterial growth at 10 ug in presence of meropenem incubated overnight by paper disk method; type: functional; conditions: read-out: IZ
Pseudomonas aeruginosa [23] = experiment: Antibacterial activity against Pseudomonas aeruginosa KB367 expressing IMP-1 assessed as inhibition of bacterial growth at 3 ug in presence of meropenem incubated overnight by paper disk method; type: functional
Pseudomonas aeruginosa [24] = experiment: Antibacterial activity against Pseudomonas aeruginosa KB367 expressing IMP-1 assessed as inhibition of bacterial growth at 1 ug in presence of meropenem incubated overnight by paper disk method; type: functional
Pseudomonas aeruginosa [25] = experiment: Antibacterial activity against Pseudomonas aeruginosa KB367 expressing IMP-1 assessed as inhibition of bacterial growth at 0.3 ug in presence of meropenem incubated overnight by paper disk method; type: functional, organism-based; conditions: dose 0.3 µg
Pseudomonas aeruginosa [26] = experiment: Antibacterial activity against Pseudomonas aeruginosa KB367 expressing IMP-1 assessed as inhibition of bacterial growth at 0.1 ug in presence of meropenem incubated overnight by paper disk method; type: functional, organism-based; conditions: dose 0.1 µg
Pseudomonas aeruginosa [27] = experiment: Antibacterial activity against Pseudomonas aeruginosa KB367 expressing IMP-1 assessed as inhibition of bacterial growth at 0.03 ug in presence of meropenem incubated overnight by paper disk method; type: functional, organism-based; conditions: dose 0.03 µg
Pseudomonas aeruginosa [28] = experiment: Antibacterial activity against Pseudomonas aeruginosa KB367 expressing IMP-1 assessed as inhibition of bacterial growth at 0.01 ug in presence of meropenem incubated overnight by paper disk method; type: functional, organism-based; conditions: dose 0.01 µg
Pseudomonas aeruginosa [29] = experiment: Antibacterial activity against Pseudomonas aeruginosa KB367 expressing IMP-1 assessed as inhibition of bacterial growth at 100 ug in absence of meropenem incubated overnight by paper disk method; type: functional, organism-based; conditions: dose 100.0 µg
Pseudomonas aeruginosa [30] = experiment: Antibacterial activity against Pseudomonas aeruginosa KB367 expressing IMP-1 assessed as inhibition of bacterial growth at 30 ug in absence of meropenem incubated overnight by paper disk method; type: functional, organism-based; conditions: dose 30.0 µg
Pseudomonas aeruginosa [31] = experiment: Antibacterial activity against Pseudomonas aeruginosa KB367 expressing IMP-1 assessed as inhibition of bacterial growth at 10 ug in absence of meropenem incubated overnight by paper disk method; type: functional, organism-based; conditions: dose 10.0 µg
Pseudomonas aeruginosa [32] = experiment: Antibacterial activity against Pseudomonas aeruginosa KB367 expressing IMP-1 assessed as inhibition of bacterial growth at 3 ug in absence of meropenem incubated overnight by paper disk method; type: functional, organism-based; conditions: dose 3.0 µg
Pseudomonas aeruginosa [33] = experiment: Antibacterial activity against Pseudomonas aeruginosa KB367 expressing IMP-1 assessed as inhibition of bacterial growth at 1 ug in absence of meropenem incubated overnight by paper disk method; type: functional, organism-based; conditions: dose 1.0 µg
Pseudomonas aeruginosa [34] = experiment: Antibacterial activity against Pseudomonas aeruginosa KB367 expressing IMP-1 assessed as inhibition of bacterial growth at 0.3 ug in absence of meropenem incubated overnight by paper disk method; type: functional, organism-based; conditions: dose 0.3 µg
Pseudomonas aeruginosa [35] = experiment: Antibacterial activity against Pseudomonas aeruginosa KB367 expressing IMP-1 assessed as inhibition of bacterial growth at 0.1 ug in absence of meropenem incubated overnight by paper disk method; type: functional, organism-based; conditions: dose 0.1 µg
Pseudomonas aeruginosa [36] = experiment: Antibacterial activity against Pseudomonas aeruginosa KB367 expressing IMP-1 assessed as inhibition of bacterial growth at 0.03 ug in absence of meropenem incubated overnight by paper disk method; type: functional, organism-based; conditions: dose 0.03 µg
Pseudomonas aeruginosa [37] = experiment: Antibacterial activity against Pseudomonas aeruginosa KB367 expressing IMP-1 assessed as inhibition of bacterial growth at 0.01 ug in absence of meropenem incubated overnight by paper disk method; type: functional, organism-based; conditions: dose 0.01 µg

SMILES | IC50 [1] | zone of inhibition at 100 µg/disc (Escherichia coli [2]) | zone of inhibition at 30 µg/disc (Escherichia coli [3]) | zone of inhibition at 10 µg/disc (Escherichia coli [4]) | zone of inhibition at 3 µg/disc (Escherichia coli [5]) | zone of inhibition at 1 µg/disc (Escherichia coli [6]) | zone of inhibition at 0.3 µg/disc (Escherichia coli [7]) | inhibition zone (IZ) (Escherichia coli [10]) | inhibition zone (IZ) (Escherichia coli [11]) | inhibition zone (IZ) (Escherichia coli [12]) | inhibition zone (IZ) (Escherichia coli [13]) | inhibition zone (IZ) (Escherichia coli [14]) | inhibition zone (IZ) (Escherichia coli [15]) | inhibition zone (IZ) (Escherichia coli [16]) | inhibition zone (IZ) (Escherichia coli [17]) | inhibition zone (IZ) (Escherichia coli [18]) | inhibition zone (IZ) (Escherichia coli [19]) | zone of inhibition at 100 µg/disc (Pseudomonas aeruginosa [20]) | zone of inhibition at 30 µg/disc (Pseudomonas aeruginosa [21]) | zone of inhibition at 10 µg/disc (Pseudomonas aeruginosa [22]) | also measured
CCCC/C(C(=O)[O-])=C(/C(=O)[O-])c1ccc(O)c(O)c1.[Na+].[Na+] | 0.56 µg/mL | 31 mm | 27 mm | 22 mm | 19 mm | 15 mm | 12 mm | inactive | inactive | inactive | inactive | inactive | inactive | inactive | inactive | inactive | inactive | 20 mm | 18 mm | 14 mm | zone of inhibition at 0.1 µg/disc (Escherichia coli [8]; read-out: IZ): 10 mm; zone of inhibition at 0.03 µg/disc (Escherichia coli [9]; read-out: IZ): 9 mm; zone of inhibition at 3 µg/disc (Pseudomonas aeruginosa [23]; read-out: IZ): 11 mm; zone of inhibition at 1 µg/disc (Pseudomonas aeruginosa [24]; read-out: IZ): 9 mm; inhibition zone (IZ) (Pseudomonas aeruginosa [25]): inactive; inhibition zone (IZ) (Pseudomonas aeruginosa [26]): inactive; inhibition zone (IZ) (Pseudomonas aeruginosa [27]): inactive; inhibition zone (IZ) (Pseudomonas aeruginosa [28]): inactive; inhibition zone (IZ) (Pseudomonas aeruginosa [29]): inactive; inhibition zone (IZ) (Pseudomonas aeruginosa [30]): inactive; inhibition zone (IZ) (Pseudomonas aeruginosa [31]): inactive; inhibition zone (IZ) (Pseudomonas aeruginosa [32]): inactive; inhibition zone (IZ) (Pseudomonas aeruginosa [33]): inactive; inhibition zone (IZ) (Pseudomonas aeruginosa [34]): inactive; inhibition zone (IZ) (Pseudomonas aeruginosa [35]): inactive; inhibition zone (IZ) (Pseudomonas aeruginosa [36]): inactive; inhibition zone (IZ) (Pseudomonas aeruginosa [37]): inactive
CCCCC1=C(c2ccc(O)c(O)c2)C(=O)OC1=O | 1.46 µg/mL (≈ 5.57 µM) | 29 mm | 25 mm | 22 mm | 20 mm | 17 mm | 13 mm | inactive | inactive | inactive | inactive | inactive | inactive | inactive | inactive | inactive | inactive | 19 mm | 14 mm | 9 mm | inhibition zone (IZ) (Escherichia coli [8]; dose 0.1 µg): inactive; inhibition zone (IZ) (Escherichia coli [9]; dose 0.03 µg): inactive; inhibition zone (IZ) (Pseudomonas aeruginosa [23]; dose 3.0 µg): inactive; inhibition zone (IZ) (Pseudomonas aeruginosa [24]; dose 1.0 µg): inactive; inhibition zone (IZ) (Pseudomonas aeruginosa [25]): inactive; inhibition zone (IZ) (Pseudomonas aeruginosa [26]): inactive; inhibition zone (IZ) (Pseudomonas aeruginosa [29]): inactive; inhibition zone (IZ) (Pseudomonas aeruginosa [30]): inactive; inhibition zone (IZ) (Pseudomonas aeruginosa [31]): inactive; inhibition zone (IZ) (Pseudomonas aeruginosa [32]): inactive; inhibition zone (IZ) (Pseudomonas aeruginosa [33]): inactive; inhibition zone (IZ) (Pseudomonas aeruginosa [34]): inactive; inhibition zone (IZ) (Pseudomonas aeruginosa [35]): inactive
